Literature values as cited in patent US20030215513A1, “Method for releasing nanosized particles of an active substance from a diffusion-controlled pharmaceutical composition for oral use” (priority 2002, published 2003).
Like-named read-outs stand apart in the source and are kept apart here.

Row | saturated concentration (at 37° C.) | saturated concentration (at 25° C.) | SMILES
1 | about 17% |  | OC[C@@H](O)[C@@H](O)[C@H](O)[C@H](O)CO [mannitol]
2 |  | about 66% | OC[C@@H](O)[C@@H](O)[C@H](O)[C@@H](O)CO [sorbitol]
